{"source": "the supplement of paper PMC10307832", "experiment_in_all_cases": "relative viability (nuclei count vs DMSO), 5 days (fraction); higher = more cells survive", "key": {"NCI-H1650": {"test_system": "NCI-H1650", "summary_of_the_method": "(§1)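 Lung cancer cell lines, seeded in 1536-well plates, were treated the following day by pin tool with a single drug or with five library-drug doses (not always all listed) in √10 steps on top of a fixed anchor-drug dose. Cells were fixed and nuclei stained in one step after 5 days, and nuclei were counted. Relative viability is the nuclei count for treated wells divided by that for vehicle wells, reported as medians of duplicate plates.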"}, "EKVX": {"test_system": "EKVX", "summary_of_the_method": "as §1"}, "BEN": {"test_system": "BEN", "summary_of_the_method": "as §1"}, "HARA": {"test_system": "HARA", "summary_of_the_method": "as §1"}, "NCI-H838": {"test_system": "NCI-H838", "summary_of_the_method": "as §1"}, "A-427": {"test_system": "A-427", "summary_of_the_method": "as §1"}, "NCI-H1792": {"test_system": "NCI-H1792", "summary_of_the_method": "as §1"}, "NCI-H650": {"test_system": "NCI-H650", "summary_of_the_method": "as §1"}, "HCC-44": {"test_system": "HCC-44", "summary_of_the_method": "as §1"}, "NCI-H596": {"test_system": "NCI-H596", "summary_of_the_method": "as §1"}, "SK-MES-1": {"test_system": "SK-MES-1", "summary_of_the_method": "as §1"}, "NCI-H358": {"test_system": "NCI-H358", "summary_of_the_method": "as §1"}, "NCI-H1437": {"test_system": "NCI-H1437", "summary_of_the_method": "as §1"}, "NCI-H23": {"test_system": "NCI-H23", "summary_of_the_method": "as §1"}, "COR-L23": {"test_system": "COR-L23", "summary_of_the_method": "as §1"}, "HCC-15": {"test_system": "HCC-15", "summary_of_the_method": "as §1"}, "201T": {"test_system": "201T", "summary_of_the_method": "as §1"}, "NCI-H1975": {"test_system": "NCI-H1975", "summary_of_the_method": "as §1"}}}
{"smiles": "CC(=O)O[C@@]12CO[C@@H]1C[C@H](O)[C@@]1(C)C(=O)[C@H](O)C3=C(C)[C@@H](OC(=O)[C@H](O)[C@@H](NC(=O)OC(C)(C)C)c4ccccc4)C[C@@](O)([C@@H](OC(=O)c4ccccc4)[C@H]21)C3(C)C", "note": "[Docetaxel] + CS(=O)(=O)CCNCc1ccc(-c2ccc3ncnc(Nc4ccc(OCc5cccc(F)c5)c(Cl)c4)c3c2)o1 [Lapatinib] (partner 2 µM)", "values": [{"measurement": "relative viability", "setting": "NCI-H1650; first compound 0.0002 µM", "value": 0.721}, {"measurement": "relative viability", "setting": "NCI-H1650; first compound 0.000632 µM", "value": 0.322}, {"measurement": "relative viability", "setting": "NCI-H1650; first compound 0.006325 µM", "value": 0.153}, {"measurement": "relative viability", "setting": "NCI-H1650; first compound 0.02 µM", "value": 0.152}, {"measurement": "relative viability", "setting": "EKVX; first compound 0.0002 µM", "value": 0.212}, {"measurement": "relative viability", "setting": "EKVX; first compound 0.000632 µM", "value": 0.173}, {"measurement": "relative viability", "setting": "EKVX; first compound 0.002 µM", "value": 0.14}, {"measurement": "relative viability", "setting": "EKVX; first compound 0.006325 µM", "value": 0.141}, {"measurement": "relative viability", "setting": "EKVX; first compound 0.02 µM", "value": 0.119}, {"measurement": "relative viability", "setting": "BEN; first compound 0.0002 µM", "value": 0.582}, {"measurement": "relative viability", "setting": "BEN; first compound 0.000632 µM", "value": 0.549}, {"measurement": "relative viability", "setting": "BEN; first compound 0.002 µM", "value": 0.233}, {"measurement": "relative viability", "setting": "BEN; first compound 0.006325 µM", "value": 0.203}, {"measurement": "relative viability", "setting": "BEN; first compound 0.02 µM", "value": 0.176}, {"measurement": "relative viability", "setting": "HARA; first compound 0.0002 µM", "value": 0.517}, {"measurement": "relative viability", "setting": "HARA; first compound 0.000632 µM", "value": 0.302}, {"measurement": "relative viability", "setting": "HARA; first compound 0.006325 µM", "value": 0.0686}, {"measurement": "relative viability", "setting": "HARA; first compound 0.02 µM", "value": 0.0783}, {"measurement": "relative viability", "setting": "NCI-H838; first compound 0.0002 µM", "value": 0.963}, {"measurement": "relative viability", "setting": "NCI-H838; first compound 0.000632 µM", "value": 0.63}, {"measurement": "relative viability", "setting": "NCI-H838; first compound 0.002 µM", "value": 0.259}, {"measurement": "relative viability", "setting": "NCI-H838; first compound 0.006325 µM", "value": 0.15}, {"measurement": "relative viability", "setting": "NCI-H838; first compound 0.02 µM", "value": 0.106}, {"measurement": "relative viability", "setting": "A-427; first compound 0.0002 µM", "value": 0.947}, {"measurement": "relative viability", "setting": "A-427; first compound 0.000632 µM", "value": 1.02}, {"measurement": "relative viability", "setting": "A-427; first compound 0.002 µM", "value": 0.961}, {"measurement": "relative viability", "setting": "A-427; first compound 0.006325 µM", "value": 0.211}, {"measurement": "relative viability", "setting": "A-427; first compound 0.02 µM", "value": 0.162}, {"measurement": "relative viability", "setting": "NCI-H1792; first compound 0.0002 µM", "value": 0.741}, {"measurement": "relative viability", "setting": "NCI-H1792; first compound 0.000632 µM", "value": 0.85}, {"measurement": "relative viability", "setting": "NCI-H1792; first compound 0.002 µM", "value": 0.522}, {"measurement": "relative viability", "setting": "NCI-H1792; first compound 0.02 µM", "value": 0.0831}, {"measurement": "relative viability", "setting": "NCI-H650; first compound 0.0002 µM", "value": 0.554}, {"measurement": "relative viability", "setting": "NCI-H650; first compound 0.000632 µM", "value": 0.384}, {"measurement": "relative viability", "setting": "NCI-H650; first compound 0.002 µM", "value": 0.307}, {"measurement": "relative viability", "setting": "NCI-H650; first compound 0.02 µM", "value": 0.168}, {"measurement": "relative viability", "setting": "HCC-44; first compound 0.0002 µM", "value": 0.936}, {"measurement": "relative viability", "setting": "HCC-44; first compound 0.000632 µM", "value": 0.961}, {"measurement": "relative viability", "setting": "HCC-44; first compound 0.002 µM", "value": 0.621}, {"measurement": "relative viability", "setting": "HCC-44; first compound 0.006325 µM", "value": 0.22}, {"measurement": "relative viability", "setting": "HCC-44; first compound 0.02 µM", "value": 0.115}, {"measurement": "relative viability", "setting": "NCI-H596; first compound 0.0002 µM", "value": 0.995}, {"measurement": "relative viability", "setting": "NCI-H596; first compound 0.000632 µM", "value": 0.957}, {"measurement": "relative viability", "setting": "NCI-H596; first compound 0.002 µM", "value": 0.844}, {"measurement": "relative viability", "setting": "NCI-H596; first compound 0.006325 µM", "value": 0.372}, {"measurement": "relative viability", "setting": "NCI-H596; first compound 0.02 µM", "value": 0.35}, {"measurement": "relative viability", "setting": "SK-MES-1; first compound 0.0002 µM", "value": 0.437}, {"measurement": "relative viability", "setting": "SK-MES-1; first compound 0.000632 µM", "value": 0.633}, {"measurement": "relative viability", "setting": "SK-MES-1; first compound 0.002 µM", "value": 0.378}, {"measurement": "relative viability", "setting": "SK-MES-1; first compound 0.02 µM", "value": 0.159}, {"measurement": "relative viability", "setting": "NCI-H358; first compound 0.0002 µM", "value": 0.426}, {"measurement": "relative viability", "setting": "NCI-H358; first compound 0.000632 µM", "value": 0.357}, {"measurement": "relative viability", "setting": "NCI-H358; first compound 0.002 µM", "value": 0.332}, {"measurement": "relative viability", "setting": "NCI-H358; first compound 0.02 µM", "value": 0.149}, {"measurement": "relative viability", "setting": "NCI-H1437; first compound 0.0002 µM", "value": 0.663}, {"measurement": "relative viability", "setting": "NCI-H1437; first compound 0.000632 µM", "value": 0.508}, {"measurement": "relative viability", "setting": "NCI-H1437; first compound 0.002 µM", "value": 0.185}, {"measurement": "relative viability", "setting": "NCI-H1437; first compound 0.006325 µM", "value": 0.12}, {"measurement": "relative viability", "setting": "NCI-H1437; first compound 0.02 µM", "value": 0.089}, {"measurement": "relative viability", "setting": "NCI-H23; first compound 0.0002 µM", "value": 0.963}, {"measurement": "relative viability", "setting": "NCI-H23; first compound 0.000632 µM", "value": 0.725}, {"measurement": "relative viability", "setting": "NCI-H23; first compound 0.002 µM", "value": 0.356}, {"measurement": "relative viability", "setting": "NCI-H23; first compound 0.006325 µM", "value": 0.157}, {"measurement": "relative viability", "setting": "NCI-H23; first compound 0.02 µM", "value": 0.123}, {"measurement": "relative viability", "setting": "COR-L23; first compound 0.0002 µM", "value": 0.993}, {"measurement": "relative viability", "setting": "COR-L23; first compound 0.000632 µM", "value": 0.843}, {"measurement": "relative viability", "setting": "COR-L23; first compound 0.002 µM", "value": 0.625}, {"measurement": "relative viability", "setting": "COR-L23; first compound 0.006325 µM", "value": 0.14}, {"measurement": "relative viability", "setting": "COR-L23; first compound 0.02 µM", "value": 0.107}, {"measurement": "relative viability", "setting": "HCC-15; first compound 0.0002 µM", "value": 0.681}, {"measurement": "relative viability", "setting": "HCC-15; first compound 0.000632 µM", "value": 0.372}, {"measurement": "relative viability", "setting": "HCC-15; first compound 0.002 µM", "value": 0.208}, {"measurement": "relative viability", "setting": "HCC-15; first compound 0.006325 µM", "value": 0.195}, {"measurement": "relative viability", "setting": "HCC-15; first compound 0.02 µM", "value": 0.137}, {"measurement": "relative viability", "setting": "201T; first compound 0.0002 µM", "value": 0.917}, {"measurement": "relative viability", "setting": "201T; first compound 0.000632 µM", "value": 0.937}, {"measurement": "relative viability", "setting": "201T; first compound 0.002 µM", "value": 0.822}, {"measurement": "relative viability", "setting": "201T; first compound 0.006325 µM", "value": 0.622}, {"measurement": "relative viability", "setting": "201T; first compound 0.02 µM", "value": 0.373}, {"measurement": "relative viability", "setting": "NCI-H1975; first compound 0.0002 µM", "value": 0.884}, {"measurement": "relative viability", "setting": "NCI-H1975; first compound 0.000632 µM", "value": 0.449}, {"measurement": "relative viability", "setting": "NCI-H1975; first compound 0.002 µM", "value": 0.268}, {"measurement": "relative viability", "setting": "NCI-H1975; first compound 0.006325 µM", "value": 0.175}, {"measurement": "relative viability", "setting": "NCI-H1975; first compound 0.02 µM", "value": 0.142}]}
